Assay: Equilibrium binding study in a two-compartment dialysis cell, HPLC
Details: sodium alginate 0.877 g/L, 25°C
[1] = total drug concentration 4.97 M x 10^4
[2] = total drug concentration 5.47 M x 10^4
[3] = total drug concentration 5.96 M x 10^4
[4] = total drug concentration 6.96 M x 10^4
[5] = total drug concentration 7.95 M x 10^4
[6] = total drug concentration 8.95 M x 10^4
[7] = total drug concentration 9.94 M x 10^4
[8] = total drug concentration 14.91 M x 10^4
[9] = total drug concentration 19.88 M x 10^4
[10] = total drug concentration 24.86 M x 10^4
[11] = total drug concentration 30.40 M x 10^4
[12] = total drug concentration 41.20 M x 10^4
[13] = total drug concentration 50.70 M x 10^4

Method: The studies were performed with a two compartment plexiglass dialysis cell (Hollenbeck laboratory) and having a cellulose membrane (molecular weight cutoff of 6000 Daltons) Bel-Art Products (Pequannock, NJ) placed between the two cell compartments. […] The dialysis cell was shaken at 80 RPM in a thermostatic water bath at 25°C until equilibrium was reached (30 h). The solution was removed from the drug compartment and the concentrations of free drug and polymer-bound drug measured by high performance liquid chromatography ("HPLC").

Compound: CC(C)NCC(O)COc1cccc2ccccc12 (stereo not drawn) [propranolol]
- Amount bound per gram of polymer [1]: 4.59 M x 10^4
- Bound drug concentration [1]: 4.03 M x 10^4
- Free drug concentration [1]: 0.94 M x 10^4
- r/(Df) [1]: 4.88 L/g
- Amount bound per gram of polymer [2]: 4.84 M x 10^4
- Bound drug concentration [2]: 4.25 M x 10^4
- Free drug concentration [2]: 1.22 M x 10^4
- r/(Df) [2]: 3.97 L/g
- Amount bound per gram of polymer [3]: 5.16 M x 10^4
- Bound drug concentration [3]: 4.53 M x 10^4
- Free drug concentration [3]: 1.43 M x 10^4
- r/(Df) [3]: 3.60 L/g
- Amount bound per gram of polymer [4]: 5.86 M x 10^4
- Bound drug concentration [4]: 5.14 M x 10^4
- Free drug concentration [4]: 1.82 M x 10^4
- r/(Df) [4]: 3.21 L/g
- Amount bound per gram of polymer [5]: 6.23 M x 10^4
- Bound drug concentration [5]: 5.46 M x 10^4
- Free drug concentration [5]: 2.49 M x 10^4
- r/(Df) [5]: 2.49 L/g
- Amount bound per gram of polymer [6]: 6.12 M x 10^4
- Bound drug concentration [6]: 5.37 M x 10^4
- Free drug concentration [6]: 3.57 M x 10^4
- r/(Df) [6]: 1.71 L/g
- Amount bound per gram of polymer [7]: 6.66 M x 10^4
- Bound drug concentration [7]: 5.83 M x 10^4
- Free drug concentration [7]: 4.10 M x 10^4
- r/(Df) [7]: 1.62 L/g
- Amount bound per gram of polymer [8]: 8.61 M x 10^4
- Free drug concentration [8]: 7.36 M x 10^4
- r/(Df) [8]: 1.17 L/g
- Amount bound per gram of polymer [9]: 9.81 M x 10^4
- Bound drug concentration [9]: 8.60 M x 10^4
- Free drug concentration [9]: 11.28 M x 10^4
- r/(Df) [9]: 0.87 L/g
- Amount bound per gram of polymer [10]: 10.73 M x 10^4
- Bound drug concentration [10]: 9.41 M x 10^4
- Free drug concentration [10]: 15.45 M x 10^4
- r/(Df) [10]: 0.60 L/g
- Amount bound per gram of polymer [11]: 11.49 M x 10^4
- Bound drug concentration [11]: 10.08 M x 10^4
- Free drug concentration [11]: 20.32 M x 10^4
- r/(Df) [11]: 0.57 L/g
- Amount bound per gram of polymer [12]: 12.37 M x 10^4
- Bound drug concentration [12]: 10.84 M x 10^4
- Free drug concentration [12]: 30.35 M x 10^4
- r/(Df) [12]: 0.41 L/g
- Amount bound per gram of polymer [13]: 12.93 M x 10^4
- Bound drug concentration [13]: 11.34 M x 10^4
- Free drug concentration [13]: 39.36 M x 10^4
- r/(Df) [13]: 0.33 L/g
